Experimental data taken from US20080287490A1, “Bis-pyridino containing compounds for the use in the treatment of CNS pathologies” (UNIVERSITY OF KENTUCKY RESEARCH FOUNDATION, priority 2005, published 2008).
Read-outs that look alike come from different tables or passages of the source.

Legend:
[1] = biological target: blood-brain barrier choline transporter; assay type: in vivo, rat
Procedure: Blood-brain barrier choline transporter affinity assays. Quaternary ammonium analogs were evaluated for their ability to inhibit [^3H]-choline uptake into brain providing an indication of the ability of these analogs to interact with the choline transporter. These assays were conducted using the in situ rat brain perfusion method of Takasato, et al., Am. J. Physiol. 1984, 247, 484, as modified by Allen and Smith, J. Neurochem., 2001, 76, 1032. […] Ki values were compared by ANOVA followed by Bonferoni's multiple comparisons test to determine if an analog inhibits [^3H]-choline uptake.
Analog affinity for, and transport by, the blood-brain barrier choline transporter.

[2] = biological target: T1, α7-type neuronal nicotinic acetylcholine receptors (Rattus norvegicus, UniProt Q05941); assay: biochemical; conditions: rat brain membranes, 2.5 nM [^3H]-MLA; read-out: Ki, [^3H]MLA binding
T1 construct: Rat brain was dissected into the whole brain tissue without cortex, striatum and cerebellum; from tissue; host or cells: rat brain (without cortex, striatum, cerebellum) membranes
T1 sequence (Q05941 23-502): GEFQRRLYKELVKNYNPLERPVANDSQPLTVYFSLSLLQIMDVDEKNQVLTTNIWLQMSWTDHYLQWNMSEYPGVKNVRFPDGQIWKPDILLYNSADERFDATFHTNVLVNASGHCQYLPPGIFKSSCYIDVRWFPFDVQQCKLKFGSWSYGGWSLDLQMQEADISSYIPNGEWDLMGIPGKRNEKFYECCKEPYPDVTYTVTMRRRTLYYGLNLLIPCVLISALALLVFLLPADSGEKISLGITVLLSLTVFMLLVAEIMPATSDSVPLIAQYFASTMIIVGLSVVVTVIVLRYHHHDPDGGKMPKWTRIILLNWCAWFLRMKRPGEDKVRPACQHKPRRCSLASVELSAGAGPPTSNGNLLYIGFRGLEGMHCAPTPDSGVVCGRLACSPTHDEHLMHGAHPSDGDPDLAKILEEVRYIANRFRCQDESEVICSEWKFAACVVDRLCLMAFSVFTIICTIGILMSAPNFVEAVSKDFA

[3] = test system: nAChR mediating nicotine-evoked [^3H]DA release (α3β2* receptor subtype); assay type: cell-based, rat; conditions: read-out: IC50, S-(−)-nicotine-evoked [^3H]DA release
Procedure: Slices were rinsed with 15 mL of fresh buffer and incubated for an additional 30 minutes in fresh buffer containing 0.1 μM [^3H]DA (6 slices/3 ml). Subsequently, slices were rinsed with 15 ml of fresh buffer and transferred to a glass superfusion chamber.
Radioactivity in the superfusate and tissue samples was determined by liquid scintillation spectroscopy. […] Basal [^3H]outflow was calculated from the average of the tritium collected in the two five minute samples just before addition of the bis-alkyl pyridino analog. […] [^3H]Overflow was calculated by subtracting the [^3H]outflow during an equivalent period of prestimulation from the values in samples collected during and after drug exposure. Inasmuch as the radiolabelled compounds were not separated and identified, the tritium collected in superfusate is referred to as either [^3H]outflow or [^3H]overflow, rather than as [^3H]DA.

α7* nAChRs = α7* nAChRs (Rattus norvegicus, UniProt Q05941); conditions: read-out: [^3H]MLA Binding Ki
Sequence of α7* nAChRs (Q05941 23-502): as above
Procedure: (§1) Whole brain, excluding cortex and cerebellum, was homogenized in 20 ml of ice-cold buffer, containing (in mM): 2 HEPES, 11.8 NaCl, 0.48 KCl, 0.25 CaCl2 and 0.12 MgSO4, pH 7.5. Homogenate was centrifuged (25,000 g, 15 minutes, 4° C.). Pellets were resuspended in 20 ml of buffer and incubated at 37° C., for ten minutes, cooled to 4° C. and centrifuged (25,000 g, 15 minutes, 4° C.). Pellets were resuspended and centrifuged using the same conditions. Final pellets were stored in assay buffer, containing (in mM): 20 HEPES, 118 NaCl, 4.8 KCl, 2.5 CaCl2, and 1.2 MgSO4) pH 7.5 at −70° C. Upon use, final pellets were resuspended in ˜20 ml assay buffer. […] Control was in the absence of analog. […] Incubations proceeded for 60 minutes at room temperature using 96-well plates and were terminated by harvesting on Unifilter-96 GF/B filter plates presoaked in 0.5% polyethylenimine, using a Packard FilterMate harvester.
(§2) After washing five times with 350 μl ice-cold assay buffer, filter plates were dried (60 minutes, 49° C.), bottom-sealed, and filled with Packard's MicroScint 20 cocktail (40 μl/well). After 60 minutes, filter plates were top-sealed, and radioactivity determined using a Packard TopCount. Protein concentrations were determined using bovine serum albumin as the standard.
(§3) Whole brain was homogenized in 20 ml of ice-cold buffer (in mM: 2 HEPES, 11.8 NaCl, 0.48 KCl, 0.25 CaCl2, and 0.12 MgSO4, pH 7.5). Homogenates were centrifuged (25,000 g, 15 minutes, 4° C.). Pellets were resuspended in 20 ml of buffer and incubated at 37° C., for 10 minutes, cooled to 4° C. and centrifuged (25,000 g, 15 minutes, 4° C.). Pellets were resuspended and centrifuged again using the same conditions. Final pellets were stored at −70° C. in assay buffer (in mM: 20 HEPES, 118 NaCl, 4.8 KCl, 2.5 CaCl2, and 1.2 MgSO4, pH 7.5). Upon use, final pellets were resuspended in ˜20 ml assay buffer. […] Control was in the absence of analog. […] Incubation proceeded for 60 minutes at room temperature using 96-well plates and was terminated by harvesting on Unifilter-96 GF/B filter plates, presoaked in 0.5% polyethylenimine, using a Packard FiterMate harvester. After washing 5× with 350 μl ice-cold assay buffer, filter plates were dried (60 minutes, 49° C.), bottom-sealed, and filled with Packard's MicroScint 20 cocktail (40 μl/well). After 60 minutes, filter plates were top-sealed, and radioactivity determined. Protein concentration was determined using BSA as the standard.

[^3H]DA Uptake = [^3H]DA uptake inhibition (Table 11); assay type: biochemical
[4] = test system: nAChR subtypes mediating nicotine-evoked [^3H]-dopamine overflow
Procedure: [^3H]-Dopamine overflow from superfused striatal slices. […] Striatal coronal slices (500 μm, 4-6 mg) were obtained and incubated for 30 minutes in Krebs' buffer (in mM: 118 NaCl, 4.7 KCl, 1.2 MgCl2, 1 NaH2PO4, 1.3 CaCl2, 11.1 glucose, 25 NaHCO3, 0.11 L-ascorbic acid and 0.004 disodium EDTA, pH 7.4, saturated with 95% O2/5% CO2) in a metabolic shaker at 34° C. Slices were incubated with 0.1 μM (final concentration) of [^3H]-dopamine during the latter 30 minutes of the 60-minute incubation period. Each slice was transferred to a glass superfusion chamber maintained at 34° C. and superfused (1 ml/min) with Krebs' buffer containing nomifensine (10 μM) and pargyline (10 μM) to inhibit [^3H]-dopamine reuptake after release into the extracellular space, ensuring that [^3H]-overflow primarily represented [^3H]-dopamine. Sample collection (5-minute; 5 mL) began after 60 minutes of superfusion. […] At the end of the experiment, each slice was solubilized, and the [^3H]-content of the tissue determined. Release during each minute was normalized for total tissue [^3H]-content. Analog-induced intrinsic activity and inhibitory activity were determined using slices from the same rat (repeated-measures design).
The amount of [^3H] in each sample was calculated by dividing the total [^3H] collected in each sample by the total in the tissue at the time of sample collection (defined as fractional release). […] Data were analyzed by weighted, least squares regression analysis of the sigmoidal concentration-effect curves to obtain EC50 and IC50 values.
Striatal slices (500 μm, 4-6 mg) were incubated for 30 minutes in Krebs' buffer (in mM: 118 NaCl, 4.7 KCl, 1.2 MgCl2, 1 NaH2PO4, 1.3 CaCl2, 11.1 glucose, 25 NaHCO3, 0.11 L-ascorbic acid and 0.004 disodium EDTA, pH 7.4, saturated with 95% O2/5% CO2) in a metabolic shaker at 34° C. Slices were incubated with 0.1 μM (final concentration) [^3H]DA during the latter 30 minutes of the 60-minute incubation period. Each slice was transferred to a glass superfusion chamber maintained at 34° C. and superfused (1 ml/min) with Krebs' buffer containing nomifensine (10 μM) and pargyline (10 μM) to inhibit [^3H]DA reuptake and metabolism, respectively, after release into the extracellular space, ensuring that [^3H]overflow primarily represents [^3H]DA. Sample collection (5-minute; 5 ml) began after 60 minutes of superfusion. […] Thus, the ability of these analogs to elicit intrinsic activity (evoke [^3H]DA overflow) was determined. At the end of the experiment, each slice was solubilized and [^3H]content of the tissue determined. Release during each minute was normalized for total [^3H]content of the slice. Analog-induced intrinsic activity and inhibitory activity were determined using slices from the same rat (repeated-measures design).
Fractional release was calculated by dividing the total tritium collected in each sample by the total tritium in the tissue at the time of sample collection. […] Typically, data were analyzed by weighted, least squares regression analysis of sigmoidal concentration-effect curves to obtain EC50 and IC50 values.

α4β2* nAChRs = α4β2* nAChRs (Rattus norvegicus, UniProt P09483+P12390); conditions: for Ki: read-out: [^3H]Nicotine Binding Ki
Sequence of α4β2* nAChRs (P09483 31-630): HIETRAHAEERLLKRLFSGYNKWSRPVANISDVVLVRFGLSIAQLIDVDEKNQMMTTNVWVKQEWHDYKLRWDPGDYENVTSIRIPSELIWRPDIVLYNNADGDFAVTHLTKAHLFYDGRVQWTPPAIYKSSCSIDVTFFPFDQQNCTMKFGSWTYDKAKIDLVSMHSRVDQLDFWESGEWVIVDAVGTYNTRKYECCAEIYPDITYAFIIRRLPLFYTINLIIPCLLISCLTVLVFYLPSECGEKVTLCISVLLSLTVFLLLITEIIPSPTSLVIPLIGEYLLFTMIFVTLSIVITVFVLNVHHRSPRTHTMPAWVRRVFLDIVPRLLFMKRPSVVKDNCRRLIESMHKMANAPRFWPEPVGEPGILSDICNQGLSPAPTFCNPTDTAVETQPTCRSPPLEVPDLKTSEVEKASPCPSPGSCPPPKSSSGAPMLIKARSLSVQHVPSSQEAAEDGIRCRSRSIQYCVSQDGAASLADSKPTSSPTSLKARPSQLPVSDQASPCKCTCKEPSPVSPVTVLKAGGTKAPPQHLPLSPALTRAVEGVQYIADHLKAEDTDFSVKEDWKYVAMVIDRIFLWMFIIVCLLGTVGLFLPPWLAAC
Sequence of α4β2* nAChRs (P12390 25-500): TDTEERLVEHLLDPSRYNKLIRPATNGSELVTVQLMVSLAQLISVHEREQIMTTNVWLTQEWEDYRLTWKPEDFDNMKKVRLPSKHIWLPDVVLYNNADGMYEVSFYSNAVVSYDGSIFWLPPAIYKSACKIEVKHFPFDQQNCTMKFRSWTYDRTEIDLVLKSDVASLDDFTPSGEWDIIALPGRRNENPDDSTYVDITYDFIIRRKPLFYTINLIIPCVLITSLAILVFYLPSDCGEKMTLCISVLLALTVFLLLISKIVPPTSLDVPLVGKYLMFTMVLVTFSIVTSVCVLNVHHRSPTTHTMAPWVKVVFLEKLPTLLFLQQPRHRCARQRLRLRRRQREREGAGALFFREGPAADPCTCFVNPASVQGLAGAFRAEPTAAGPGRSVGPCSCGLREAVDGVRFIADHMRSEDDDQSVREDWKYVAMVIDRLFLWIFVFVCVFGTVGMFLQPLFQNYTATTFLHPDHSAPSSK
Procedure: as §1, §2, §3

[5] = biological target: T1, α7-type neuronal nicotinic acetylcholine receptors; assay type: binding; conditions: for Ki: read-out: Ki, [^3H]MLA binding
Procedure: Rat brain was dissected into the whole brain tissue without cortex, striatum and cerebellum and was frozen in liquid nitrogen and stored at −70° C. until use.
The brain tissue was homogenized with a Tekmar Polytron (setting 40) in 20 volumes of ice-cold hypotonic buffer (2 mM HEPES, 14.4 mM NaCl, 0.15 mM KCl, 0.2 mM CaCl2 and 0.1 mM MgSO4, pH=7.5). The homogenate was incubated at 37° C. for ten minutes and centrifuged at 25,000×g for 15 minutes at […] The pellet was washed three times more by resuspension in the 20 volumes of the same buffer and centrifugation at the above parameters. The final pellet was stored at −20° C. under 4.6 ml of the incubation buffer and was suspended just before the incubation with radioligand.
[^3H]MLA (25.4 Ci/mmol) was purchased from Tocris Cookson Ltd., Bristol, U.K. Binding was performed in duplicate, in a final volume of 250 μl of the incubation medium, containing 20 mM HEPES, 144 mM NaCl, 1.5 mM KCl, 2 mM CaCl2, 1 mM MgSO4 and 0.05% BSA, pH=7.5. Reaction was initiated by the addition of 100 μl of membrane suspension to the samples containing a desired concentration of test compounds and […] [^3H] MLA (final concentration) and incubated for 2 hours at room temperature. […] The binding reaction was terminated by dilution of samples with 3 ml of ice-cold incubation buffer followed by immediate filtration through presoaked in 0.5% polyethylenimine glass fiber filters (S&S, grade #32) using a Brandel harvester system. Filters were rinsed three times with 3 ml of ice-cold buffer, transferred to scintillation-vials and 4 ml of scintillation cocktail was added. Protein was measured using the Bradford dye-binding procedure with bovine serum albumin as the standard.

[6] = biological target: T2, Rat Striatal Nicotinic Acetylcholine Receptors ([^3H]nicotine binding sites) (Rattus norvegicus, UniProt P09483+P12390); assay: biochemical; conditions: read-out: Ki, specific binding of [^3H]-nicotine
T2 construct: Striata from two rats were dissected, pooled, and homogenized; from tissue; host or cells: rat striatum membranes
T2 sequence (P09483 31-630): as the sequence (P09483 31-630) above
T2 sequence (P12390 25-500): as the sequence (P12390 25-500) above
Procedure: Striata from two rats were dissected, pooled, and homogenized with a Tekmar polytron in 10 volumes of ice-cold modified Krebs-HEPES buffer (20 mM HEPES, 118 mM NaCl, 4.8 mM KCl, 2.5 mM CaCl2, 1.2 mM MgSO4, adjusted to pH 7.5). The homogenates were incubated at 37° C. for five minutes and centrifuged at 15,000 g for 20 minutes. The pellet was resuspended in ten volumes of ice-cold MilliQ water, incubated for five minutes at 37° C., and centrifuged at 15,000 g for 20 minutes The second pellet was then resuspended in ten volumes of fresh ice-cold 10% Krebs-HEPES buffer, incubated at 37° C., and centrifuged at 15,000 g for 20 minutes. The latter sequence of resuspension, incubation, and centrifugation was repeated. The pellet was frozen under fresh 10% Krebs-HEPES buffer and stored at −40° C. until assay. Upon assay, the pellet was resuspended in the Krebs-HEPES buffer, incubated at 37° C. for five minutes, and centrifuged at 15,000 g for 20 minutes. The final pellet was resuspended in 3.6 ml ice-cold MilliQ water which provided for approximately 200 μg protein per 100 μl aliquot. Competition assays were performed in duplicate in a final volume of 200 μl Krebs-HEPES buffer containing […] Tris buffer (pH 7.5 at 4° C.). […] After a 90 minute incubation at 4° C., reactions were terminated by dilution of the samples with 3 ml of ice-cold Krebs-HEPES buffer followed immediately by filtration through Whatman GF/B glass fiber filters (presoaked in 0.5% polyethyleneimine) using a Brandel Cell Harvester. Filters were rinsed three times with 3 ml of ice-cold Krebs-HEPES buffer, transferred to scintillation vials, and 5 ml scintillation cocktail (Research Products International Corp., Mt. Prospect, Ill.) added. […] Binding parameters were determined using the weighted, least squares non-linear regression.

[7] = test system: nAChR subtypes mediating nicotine-evoked DA release; assay: Analog-evoked [^3H]DA overflow (intrinsic activity) from superfused striatal slices; assay type: cell-based, rat
[8] = Table 8, single inhibitor concentration 10 or 250 μM, mean (standard error), read-out: Ki, affinity for the blood brain barrier choline transporter
[9] = read-out: apparent Ki, inhibition of [^3H]-choline uptake into brain
[10] = rat striatal slices, nicotine 10 μM
[11] = read-out: Nicotine-evoked [^3H]DA Overflow IC50, Table 11
[12] = rat brain membranes, […] [^3H]-MLA
[13] = read-out: Nicotine-evoked [^3H]DA Overflow IC50, Table 10, mean (standard error)
[14] = rat striatal membranes, 3 nM [^3H]-nicotine
[15] = read-out: IC50, inhibition of nicotine-evoked [^3H]dopamine release/overflow
[16] = read-out: Nicotine-evoked [^3H]DA Overflow IC50, Table 7, mean (standard error)
[17] = read-out: Nicotine-evoked [^3H]DA Overflow IC50
[18] = 500 μM choline in perfusion fluid

Compound: CCCCCC[N+](C)(C)CCO [N-n-Hexylcholine, reference compound]
- Ki [1, 8]: 2.2 µM

Compound: CCCC[n+]1cccc(C2CCCN2C)c1 (stereo not drawn) [NBNI]
- Ki [1, 9]: 777 ± 588 µM

Compound: CCCCCCCC[N+](C)(C)CCO [N-n-Octylcholine, reference compound]
- Ki [1, 8]: 1.7 µM

Compound: c1ccc2c(c1)ccc[n+]2CCCCCCCCCCCC[n+]1cccc2ccccc21 [bQDDB, N,N′-Dodecane-1,12-diyl-bis-quinolinium Dibromide]
- Ki [2]: 1.57 µM
- IC50 [3, 10]: 0.02 µM
- Ki (α7* nAChRs; Table 11): 1.61 ± 0.21 µM
- Ki ([^3H]DA Uptake): 3.86 ± 0.22 µM
- IC50 [4, 11]: 0.021 ± 0.01 µM

Compound: N,N′-Nonane-1,9-diyl-bis-picolinium Dibromide [bPiNB]
- Ki (α4β2* nAChRs): 80 µM
- Ki [5]: > 100 µM
- Ki [6]: 66.7 µM

Compound: N,N′-Octane-1,8-diyl-bis-picolinium Diiodide [bPiOI]
- Ki [5, 12]: > 100 µM
- IC50 [3, 10]: 0.01 µM
- IC50 [4, 13]: 0.01 µM
- Ki [6, 14]: > 100 µM

Compound: CN1CCCC1c1ccc[n+](C)c1 (stereo not drawn) [NMNI]
- Ki [1, 9]: > 1000 µM

Compound: N,N′-Dodecane-1,12-diyl-bis-picolinium Dibromide [bPiDDB]
- Ki (α4β2* nAChRs; Table 10, mean (standard error)): 49 µM
- Ki (α4β2* nAChRs; Table 11): 48.6 ± 17.2 µM
- Ki [5, 12]: > 100 µM
- IC50 [3, 10]: 0.005 µM
- Ki (α7* nAChRs; Table 11): > 100 µM
- Ki ([^3H]DA Uptake): > 100 µM
- affinity for nAChR subtype mediating nicotine-evoked [^3H]DA overflow compared to α4β2* and α7* nAChRs [4]: 4-5 orders of magnitude
- maximal inhibition (Imax) of nicotine-evoked [^3H]DA overflow [4]: 60%
- potency relative to DHβE in inhibiting nicotine-evoked [^3H]DA overflow [4]: approximately 320 fold
- IC50 [4, 15]: 0.005 µM
- IC50 [4, 13]: 0.005 µM
- IC50 [4, 11]: 0.005 ± 0.003 µM
- Ki [6, 14]: 33 µM

Compound: [Br-].[Br-].c1cc[n+](CCCCCCCCCCCC[n+]2ccccc2)cc1 [bPDDB, N,N′-Dodecane-1,12-diyl-bis-pyridinium Dibromide]
- Ki (α4β2* nAChRs; Table 7, mean (standard error)): 9.15 µM
- Ki (α4β2* nAChRs; Table 11): 9.15 ± 0.17 µM
- binding affinity in the [^3H]MLA assay [5]: moderate binding affinity
- Ki [2]: 35.6 µM
- IC50 [3, 10]: 1 µM
- Ki (α7* nAChRs; Table 7, mean (standard error)): 33 µM
- Ki (α7* nAChRs; Table 11): 33 ± 4.6 µM
- Ki ([^3H]DA Uptake): > 100 µM
- IC50 [4, 16]: 1 µM
- IC50 [4, 11]: 1 ± 0.38 µM
- Ki [6, 14]: 9.14 µM

Compound: c1ccc2c[n+](CCCCCCCCCCCC[n+]3ccc4ccccc4c3)ccc2c1 [bIQDDB, N,N′-Dodecane-1,12-diyl-bis-isoquinolinium Dibromide]
- Ki (α4β2* nAChRs; Table 11): 6.1 ± 0.73 µM
- Ki [2]: 12.3 µM
- Ki (α7* nAChRs; Table 11): 2.21 ± 0.25 µM
- Ki ([^3H]DA Uptake): 0.27 ± 0.07 µM
- IC50 [4, 11]: 0.007 ± 0.003 µM
- Ki [6, 14]: > 100 µM

Compound: N,N′-Decane-1,10-diyl-bis-picolinium Diiodide [bPiDI]
- Ki [5]: > 100 µM
- IC50 [3]: 0.03 µM
- IC50 [4, 17]: 0.03 µM
- Ki [6]: > 100 µM

Compound: CCCCCCCCCCCC[n+]1cccc(C)c1.[I-] [NDDPiI]
- concentration evoking [^3H]DA overflow (intrinsic activity) [7]: ≥ 1.0 µM
- maximal inhibition (Imax) of nicotine-evoked [^3H]DA overflow [4]: 63%
- IC50 [4, 15]: 0.03 µM

Compound: N,N′-Hexane-1,6-diyl-bis-picolinium; Diiodide [bPiHxI]
- Ki [5]: > 100 µM
- IC50 [3]: 1.66 µM
- IC50 [4, 17]: 1.66 µM
- Ki [6]: > 100 µM

Compound: CCCCCCCC[n+]1ccccc1 [N-n-Octylpyridinium iodide]
- Ki [1, 8]: 32 µM

Compound: CN1CCC[C@H]1c1ccc[n+](CCCCCCCCCCCC[n+]2cccc([C@@H]3CCCN3C)c2)c1 [bNDDB, N,N′-Dodecane-1,12-diyl-bis-nicotinium Dibromide]
- Ki (α4β2* nAChRs; Table 7, mean (standard error)): 1.95 µM
- Ki (α4β2* nAChRs; Table 11): 1.95 ± 0.19 µM
- IC50 [3, 10]: 4.37 µM
- Ki ([^3H]DA Uptake): 43.2 ± 14.9 µM
- IC50 [4, 16]: 0.17 µM
- IC50 [4, 11]: 0.04 ± 0.02 µM
- Ki [6, 14]: 1.43 µM

Compound: CCCCCCCC[n+]1cccc([C@@H]2CCCN2C)c1.[I-] [NONI]
- mode of interaction with the high affinity [^3H]-nicotine binding site (Scatchard analyses) (α4β2* nAChRs; no change in Bmax): competitive manner
- decrease of PA for [^3H]-NONI [18]: ~25%
- permeability-surface area product (PA) for [^3H]-NONI [18]: 1.24±0.5×10^−3 ml/s/g
- uptake (PA) of [^3H]-NONI (5 mM choline in perfusion fluid): 7.55±3.30×10^−4 ml/s/g
- permeability-surface area product (PA) for [^3H]-NONI (no inhibitors present, single time point): 1.64±0.37×10^−3 ml/s/g
- transfer coefficient value (Kin) for [^3H]-NONI uptake (rat brain, 0-60 seconds, absence of unlabeled NONI): 1.59±0.14×10^−3 ml/s/g
- inhibition of [^3H]-NONI brain uptake by unlabeled NONI (unlabeled NONI 250 μM in perfusion fluid, 45 seconds uptake): 46%
- Ki [5, 12]: > 100 µM
- IC50 [3, 10]: 0.62 µM
- Ki (α7* nAChRs; Table 4, mean (95% confidence interval)): 12 µM
- Ki ([1]; rat, in vivo, read-out: apparent Ki, inhibition of [^3H]-choline uptake into brain): 49 µM
- mode of interaction with nAChRs mediating nicotine-evoked dopamine release (Schild analysis) [4]: competitive manner
- IC50 ([4]; read-out: Nicotine-evoked [^3H]DA Overflow IC50, Table 4, mean (95% confidence interval)): 0.62 µM
